The values below come from patent US10449184B2, “Pharmaceutical compositions of therapeutically active compounds” (Agios Pharmaceuticals, Inc., priority 2014, dated 2019).

≈ marks a conversion by molar mass, not a printed value.

Data set [1] is described as follows: rat pharmacokinetics study of Example 4 (oral suspensions). It is filed as in vivo, Sprague Dawley rats. To be noted: Sprague Dawley, 200 mg/kg oral suspension in vehicle, plasma. The procedure: The following three homogenous suspensions of Compound 1 are provided:
Form 2 in vehicle (1% d-alpha-tocopheryl polyethylene glycol 1000 succinate (TPGS):1% HPMCAS in water), an amorphous solid dispersion of 25% w/w Form 2 and 75% w/w HPMCAS-M (Solid Dispersion A) in vehicle, and an amorphous solid dispersion of 25% w/w Form 2 and 75% w/w PVAP (Solid Dispersion B) in vehicle (200 mg/kg in 10 mL/kg).
Each suspension is prepared on the day of dosing, and the Sprague Dawley rats are dosed orally. Serial plasma samples are taken at different time points following dosing. […] PK parameters, including AUC0-72 hr and Cmax, are calculated using WinNonlin software.

Data set [2] is described as follows: solubility in fasted state simulated intestinal fluid (FASSIF). It counts as physicochemical. To be noted: pH 6.1, fassif, pH of 6.1 at 4 hours.

As usually defined, the Cmax is the highest concentration seen after dosing. Usually solubility stands for the dissolved amount per volume that the medium holds. Lower therefore signals little dissolved substance. For `N#Cc1ccnc(N2C(=O)CC[C@H]2C(=O)N(c2cncc(F)c2)[C@H](C(=O)NC2CC(F)(F)C2)c2ccccc2Cl)c1` [Form 2, (S)—N—((S)-1-(2-chlorophenyl)-2-((3,3-difluorocyclobutyl)amino)-2-oxoethyl)-1-(4-cyanopyridin-2-yl)-N-(5-fluoropyridin-3-yl)-5-oxopyrrolidine-2-carboxamide], the Cmax in data set [1] was determined as 1600 ng/mL. In addition, the AUC(0-t) in data set [1] (read-out: AUC0-72 hr) worked out at 21700 ng·h/mL. The compound further yielded a solubility at 4 h in data set [2] of about 18 µg/mL (≈ 30.9 µM).
